Experimental data from ChEMBL document CHEMBL1201862, “PubChem BioAssay data set” (2004).
The source made the active and inactive calls.

Columns and labels:
Cytochrome P450 2C19 = Cytochrome P450 2C19 (Homo sapiens, UniProt P33261); assay: Cytochrome panel assay with activity outcomes. Panel member name: p450-cyp2c19 Compounds with AC50 equal or less than 10 uM are considered active; format: functional
Cytochrome P450 1A2 = target: T1, Cytochrome P450 1A2 (Homo sapiens, UniProt P05177);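 note: PubChem cytochrome P450 panel assay, CYP1A2 panel member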
T1 sequence (P05177 whole entry): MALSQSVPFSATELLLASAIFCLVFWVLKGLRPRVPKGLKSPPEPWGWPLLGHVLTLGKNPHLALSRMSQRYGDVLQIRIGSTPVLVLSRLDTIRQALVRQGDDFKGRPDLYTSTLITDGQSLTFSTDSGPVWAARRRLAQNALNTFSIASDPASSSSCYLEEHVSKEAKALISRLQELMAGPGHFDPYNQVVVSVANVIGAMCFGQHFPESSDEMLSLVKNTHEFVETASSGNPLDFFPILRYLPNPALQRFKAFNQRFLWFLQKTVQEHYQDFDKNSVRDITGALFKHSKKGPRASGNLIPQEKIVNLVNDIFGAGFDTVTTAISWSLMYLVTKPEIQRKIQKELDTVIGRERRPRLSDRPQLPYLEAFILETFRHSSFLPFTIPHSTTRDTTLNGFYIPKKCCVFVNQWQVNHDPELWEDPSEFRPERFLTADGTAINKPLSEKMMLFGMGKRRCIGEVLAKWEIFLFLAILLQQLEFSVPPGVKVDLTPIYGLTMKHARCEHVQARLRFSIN

Cytochrome P450 3A4 = Cytochrome P450 3A4 (Homo sapiens, UniProt P08684);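 note: CYP3A4 tested as one member of a cytochrome P450 panel screen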
Cytochrome P450 3A4, sequence (P08684 whole entry): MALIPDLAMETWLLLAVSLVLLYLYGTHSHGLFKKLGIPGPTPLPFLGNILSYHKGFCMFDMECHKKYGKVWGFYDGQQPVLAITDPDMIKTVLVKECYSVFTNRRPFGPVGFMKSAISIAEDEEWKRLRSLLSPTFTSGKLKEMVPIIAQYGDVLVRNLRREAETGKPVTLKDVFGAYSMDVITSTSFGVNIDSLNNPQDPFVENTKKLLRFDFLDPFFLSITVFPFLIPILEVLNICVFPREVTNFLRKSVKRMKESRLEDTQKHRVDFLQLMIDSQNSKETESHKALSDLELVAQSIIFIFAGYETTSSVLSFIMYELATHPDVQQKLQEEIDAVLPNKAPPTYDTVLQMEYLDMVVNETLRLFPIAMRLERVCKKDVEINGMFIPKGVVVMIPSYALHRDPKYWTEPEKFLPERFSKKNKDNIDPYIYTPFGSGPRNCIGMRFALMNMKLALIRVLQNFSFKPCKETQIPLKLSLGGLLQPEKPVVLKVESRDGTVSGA

[1] = Trypanosoma cruzi growth suppression in host cells – NIH3T3 host cells, beta-gal luminescence, confirmation (AID 2044); format: functional, cell-based;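 note: intracellular parasites grown in NIH/3T3 mouse fibroblasts as host cells; luminescent beta-galactosidase reporter signal from transgenic T. cruzi replicating inside host cells; inhibitors lower the luminescence signal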
[2] = NIH3T3 cell viability loss – ATP luminescence, mouse fibroblasts, counter-screen, dose response (AID 2010); format: functional, cell-based;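 note: cells exposed to compound for about 90 hours before reading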
Cytochrome P450 2C9 = Cytochrome P450 2C9 (Homo sapiens, UniProt P11712)
Cytochrome P450 2C9, sequence (P11712 whole entry): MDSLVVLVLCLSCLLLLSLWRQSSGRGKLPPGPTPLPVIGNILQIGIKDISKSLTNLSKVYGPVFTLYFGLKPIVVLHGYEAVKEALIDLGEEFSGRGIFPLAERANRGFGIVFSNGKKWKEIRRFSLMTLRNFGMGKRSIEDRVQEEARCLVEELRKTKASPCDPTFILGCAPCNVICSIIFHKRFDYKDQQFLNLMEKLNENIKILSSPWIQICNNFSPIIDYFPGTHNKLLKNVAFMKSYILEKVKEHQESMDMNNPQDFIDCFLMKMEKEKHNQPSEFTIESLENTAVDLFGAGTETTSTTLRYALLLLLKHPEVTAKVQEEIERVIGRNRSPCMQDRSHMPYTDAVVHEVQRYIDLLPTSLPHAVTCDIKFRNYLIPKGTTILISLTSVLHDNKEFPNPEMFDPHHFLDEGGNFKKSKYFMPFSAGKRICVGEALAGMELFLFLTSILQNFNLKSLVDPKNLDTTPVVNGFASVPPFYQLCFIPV

[3] = tested on: Streptococcus sp. 'group A'; assay: Streptococcus pyogenes SK(-)GAS viability under kanamycin – luminescence, BacTiterGlo, confirmation, counter-screen for streptokinase expression inhibitor project, dose response (AID 1900); format: functional, organism-based
Streptococcus = assay: GAS UMAA2166 growth inhibition – luminescence, BacTiterGlo, counter-screen for streptokinase expression inhibitor project, dose response (AID 1915); format: functional, organism-based;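 note: potency for reduction of bacterial viability or growth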
[4] = Luminescence Cell-Based Dose Response HTS to Identify Inhibitors of 5'UTR Stem-Loop Driven Prion Protein mRNA Translation in H4 Neuroglioblastoma Cells. [Related pubchem assays: 1827 (Project Summary), 1813 (Primary HTS)]; format: functional
[5] = alpha-synuclein stem-loop luciferase translation blockers – H4 neuroglioma cells, luminescence, confirmation (AID 1988); format: functional, cell-based

Cytochrome P450 2C19, sequence (P33261 whole entry): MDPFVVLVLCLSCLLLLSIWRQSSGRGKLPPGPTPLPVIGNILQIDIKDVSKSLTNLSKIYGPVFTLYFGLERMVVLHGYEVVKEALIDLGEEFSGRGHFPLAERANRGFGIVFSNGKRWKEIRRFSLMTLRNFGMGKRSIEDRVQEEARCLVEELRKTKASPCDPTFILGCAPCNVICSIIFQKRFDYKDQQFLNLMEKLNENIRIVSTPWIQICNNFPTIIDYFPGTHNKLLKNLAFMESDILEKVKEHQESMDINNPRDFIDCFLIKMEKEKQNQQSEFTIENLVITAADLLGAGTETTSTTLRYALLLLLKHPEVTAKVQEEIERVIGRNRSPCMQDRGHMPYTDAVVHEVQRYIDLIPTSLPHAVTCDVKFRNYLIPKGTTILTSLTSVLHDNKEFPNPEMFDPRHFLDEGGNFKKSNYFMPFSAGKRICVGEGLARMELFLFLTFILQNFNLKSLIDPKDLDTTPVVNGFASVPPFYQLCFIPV

Structure (SMILES): CCOc1c2ccc(C(=O)NCCCCc3ccccc3)cc2nn1CC
- AC50 (Cytochrome P450 2C19; read-out: AC50): 8.91 µM (inconclusive)
- AC50 (Cytochrome P450 1A2): 6.31 µM (inconclusive)

Structure (SMILES): CCCCC(=O)Nc1nnc(SCC(=O)NC2CCCC2)s1
- AC50 (Cytochrome P450 2C19; read-out: AC50): 35.5 µM (inconclusive)

Structure (SMILES): CC(=O)OC[C@@H]1O[C@H](C/C=N\OCC[C@H]2C=C[C@H](OC(C)=O)[C@@H](COC(C)=O)O2)C=C[C@@H]1OC(C)=O
- AC50 (Cytochrome P450 2C19): inconclusive
- AC50 (Cytochrome P450 3A4): 3.16 µM (inconclusive)

Structure (SMILES): CCN(c1ccccc1)S(=O)(=O)c1cc(C(=O)Nc2ccc(Br)cc2)ccc1F
- EC50 [1]: 2.66 µM (active)
- EC50 [2]: > 60 µM (not active)

Structure (SMILES): CNc1cc(-c2ccccc2CN(C)C)ncn1
- AC50 (Cytochrome P450 1A2): 31.6 µM (inconclusive)

Structure (SMILES): CC(C)(C)c1cc(Br)c(O)c(CN(Cc2cc(C(C)(C)C)cc(Br)c2O)C2CCCCC2)c1
- AC50 (Cytochrome P450 1A2): 5.01 µM (inconclusive)
- AC50 (Cytochrome P450 2C9): 3.16 µM (inconclusive)

Structure (SMILES): C=C[C@]1(C)C[C@@H](OC(=O)CSCCN(CC)CC)[C@]2(C)C(C)CC[C@]3(CCC(=O)[C@H]32)[C@@H](C)[C@@H]1O (stereo not given in full)
- EC50 [3]: < 0.06 µM (active)
- EC50 (Streptococcus): 0.182 µM (active)

Structure (SMILES): O=C(c1cccc(C(F)(F)F)c1)C1CCCN(Cc2ccc(OCCO)cc2)C1 (stereo not given)
- EC50 [1]: 0.402 µM (active)
- EC50 [2]: > 30 µM (not active)

Structure (SMILES): Cc1cc(N2CCN(c3ccccc3)CC2)nc(NCc2ccccc2)n1
- EC50 [1]: 0.809 µM (active)
- EC50 [2]: > 30 µM (not active)

Structure (SMILES): CCN1CCN(Cc2ccc(NC(=O)c3cc(NC(=O)c4cc(-c5ccc(OC)cc5)[nH]n4)cc(OC)c3)cc2C(F)(F)F)CC1
- EC50 [3]: 4.15 µM (active)
- EC50 (Streptococcus): 7.21 µM (active)

Structure (SMILES): CC(C)Oc1ccc(CSC(=N)N)cc1
- AC50 (Cytochrome P450 2C19; read-out: AC50): 5.62 µM (inconclusive)
- AC50 (Cytochrome P450 1A2): 22.4 µM (inconclusive)

Structure (SMILES): O=C(NC1CCCCC1)C1CC=CCC1C(=O)OCC(Cl)=C(Cl)Cl (stereo not given)
- AC50 (Cytochrome P450 1A2): 25.1 µM (inconclusive)

Structure (SMILES): CN(C)CN1C(=O)S/C(=C2/C(=O)N(CN(C)C)c3ccccc32)C1=O
- AC50 (Cytochrome P450 1A2): 0.794 µM (inconclusive)

Structure (SMILES): COc1ccccc1CNc1cc(-c2ccccc2Cl)ncn1
- AC50 (Cytochrome P450 3A4): 39.8 µM (inconclusive)

Structure (SMILES): COc1nnc(OC)c2ccccc12
- AC50 (Cytochrome P450 2C19; read-out: AC50): 0.0631 µM (inconclusive)

Structure (SMILES): COc1cccc(CNCCNC(=O)c2nonc2N)c1
- AC50 (Cytochrome P450 1A2): 39.8 µM (inconclusive)

Structure (SMILES): Cc1nc2cnc(N3CCN(C)CC3)nc2n(CCc2ccccc2)c1=O
- AC50 (Cytochrome P450 3A4): 15.8 µM (inconclusive)

Structure (SMILES): N#CCCn1c(=O)c(-c2ccccc2)nc2cnc(N3CCOCC3)nc21
- AC50 (Cytochrome P450 1A2): 10 µM (inconclusive)

Structure (SMILES): COc1ccc(Oc2ncc3nc(C)c(=O)n(CCC#N)c3n2)cc1
- AC50 (Cytochrome P450 1A2): 25.1 µM (inconclusive)

Structure (SMILES): CC(C)(C)c1ccccc1OCC(=O)Nc1ccccc1C(=O)NCc1cccnc1
- EC50 [1]: 3.61 µM (active)
- EC50 [2]: > 60 µM (not active)

Structure (SMILES): O=c1cnc2cnc(N3CCNCC3)nc2n1Cc1ccc(F)cc1
- AC50 (Cytochrome P450 2C9): 20 µM (inconclusive)

Structure (SMILES): CC(C)CCn1nnnc1C(c1ccc(F)cc1)N1CCN(C(=O)c2ccco2)CC1 (stereo not given)
- AC50 (Cytochrome P450 2C9): 11.2 µM (inconclusive)

Structure (SMILES): Cc1c(S(=O)(=O)O)ccc(/N=N\c2c(O)c(C(=O)O)cc3ccccc23)c1Cl
- AC50 (Cytochrome P450 1A2): 5.01 µM (inconclusive)

Structure (SMILES): Cc1nc2cnc(N3CCNCC3)nc2n(Cc2ccc(F)cc2)c1=O
- AC50 (Cytochrome P450 2C19): inconclusive
- AC50 (Cytochrome P450 2C9): 25.1 µM (inconclusive)

Structure (SMILES): CCN1CCN(c2ccc(S(=O)(=O)N3CCCCC3)cc2NC(=O)c2ccc(C)o2)CC1
- EC50 [1]: 2.01 µM (active)
- EC50 [2]: > 60 µM (not active)

Structure (SMILES): CCN(C(=O)COC(=O)c1cc(-c2ccc3cc(OC)ccc3c2)nc2ccccc12)C1CCS(=O)(=O)C1 (stereo not given)
- EC50 [4]: 13.9 µM (active)
- EC50 [5]: 11 µM (active)

Structure (SMILES): Cc1cc(C)c(C#N)c(SCC(=O)Nc2nnc(-c3ccccc3)s2)n1
- EC50 [1]: > 30 µM (not active)
- EC50 [2]: > 30 µM (not active)

Structure (SMILES): Cc1ccc(S(=O)(=O)N[C@H](CN)C(=O)O)cc1
- AC50 (Cytochrome P450 2C19): inconclusive

Structure (SMILES): O=C(O)C1CCN(c2ncnc3ccc(-c4ccccc4C(F)(F)F)cc23)CC1
- AC50 (Cytochrome P450 3A4): 39.8 µM (inconclusive)

Structure (SMILES): C=CCNC(=O)c1ccc(-c2nc(-c3ccc(Cl)c(Cl)c3)cs2)cc1
- AC50 (Cytochrome P450 2C19; read-out: AC50): 28.2 µM (inconclusive)
- AC50 (Cytochrome P450 3A4): 7.94 µM (inconclusive)

Structure (SMILES): Fc1cccc(C[n+]2csc3ccccc32)c1
- EC50 [1]: 1.99 µM (active)
- EC50 [2]: > 60 µM (not active)

Structure (SMILES): Cc1nc2cnc(N3CCNCC3)nc2n(C)c1=O
- AC50 (Cytochrome P450 2C19): inconclusive
- AC50 (Cytochrome P450 3A4): 15.8 µM (inconclusive)

Structure (SMILES): COC(=O)[C@@]1(Cc2ccc(F)cc2)[C@H]2c3cc(C(=O)N4CCCC4)n(CCF)c3C[C@H]2CN1C(=O)c1ccccc1
- AC50 (Cytochrome P450 1A2): 15.8 µM (inconclusive)

Structure (SMILES): CCCS(=O)(=O)N1CCCC(C(=O)NCCN2CCC(Cc3ccccc3)CC2)C1 (stereo not given)
- AC50 (Cytochrome P450 2C9): 5.01 µM (inconclusive)

Structure (SMILES): CC(=O)c1ccc(N2CCN(c3ccc(S(=O)(=O)NCCN(C)C)cc3[N+](=O)[O-])CC2)cc1
- EC50 [1]: 0.454 µM (active)
- EC50 [2]: > 16 µM (not active)

Structure (SMILES): COc1ccc(N(C(=O)COc2ccccc2OC)S(=O)(=O)c2ccc(C)cc2)cc1
- AC50 (Cytochrome P450 1A2): 4.47 µM (inconclusive)

Structure (SMILES): COc1ccccc1-c1cc2nc(C)c(CCC(=O)NCc3ccc(F)cc3)c(C)n2n1
- EC50 [1]: 2.06 µM (active)
- EC50 [2]: > 60 µM (not active)

Structure (SMILES): O=S(=O)(c1ccc2ccccc2c1)N1CCC(c2nc(-c3ccncc3)no2)CC1
- EC50 [1]: 0.564 µM (active)
- EC50 [2]: > 60 µM (not active)

Structure (SMILES): Cc1cc(C(=O)N2CCCC(N3CCN(c4ccccc4C)CC3)C2)n(C)n1 (stereo not given)
- EC50 [1]: > 30 µM (not active)
- EC50 [2]: > 30 µM (not active)

Structure (SMILES): COc1ccccc1CNc1ncnc2ccc(-c3cccnc3)cc12
- AC50 (Cytochrome P450 2C19; read-out: AC50): 20 µM (inconclusive)

Structure (SMILES): CC(C)(Oc1ccc(-c2cccc3ccccc23)cc1)C(=O)O
- AC50 (Cytochrome P450 2C19): inconclusive
- AC50 (Cytochrome P450 2C9): 0.398 µM (inconclusive)

Structure (SMILES): Cc1ccc2c(c1)C1CN(C)CCC1N2C(=S)NC(=O)c1ccc(Br)cc1 (stereo not given)
- EC50 [1]: 0.828 µM (active)
- EC50 [2]: 41.5 µM (active)

Structure (SMILES): CCCCN1C(=O)CCC(C(=O)O)C1c1ccccc1 (stereo not given)
- AC50 (Cytochrome P450 2C19): inconclusive

Structure (SMILES): O=C(NCc1cccnc1)c1ccc(-c2cc(Cl)ccc2Cl)o1
- EC50 [1]: 1.72 µM (active)
- EC50 [2]: > 30 µM (not active)

Structure (SMILES): CC(C)N(CCNC(=O)C1CCN(S(=O)(=O)N2CCOCC2)CC1)Cc1ccccc1
- AC50 (Cytochrome P450 2C19; read-out: AC50): 39.8 µM (inconclusive)
- AC50 (Cytochrome P450 2C9): 20 µM (inconclusive)

Structure (SMILES): C=CCNC(=O)c1onc(CSc2ccc(F)cc2)c1C(=O)O
- AC50 (Cytochrome P450 3A4): 22.4 µM (inconclusive)

Structure (SMILES): Cc1ccc(C)c(NC(=O)C2(C)CC3c4ccccc4C2c2ccccc23)c1 (stereo not given)
- AC50 (Cytochrome P450 2C19; read-out: AC50): 0.00562 µM (inconclusive)
- AC50 (Cytochrome P450 2C9): 10 µM (inconclusive)

Structure (SMILES): NC(=S)SCCC(=O)O
- AC50 (Cytochrome P450 1A2): 1.58 µM (inconclusive)

Structure (SMILES): CCSc1nnc2n(N)c(=O)c3ccccc3n12
- AC50 (Cytochrome P450 3A4): 15.8 µM (inconclusive)

Structure (SMILES): N#C[C@H](Cc1ccc(O)cc1)c1ccc(O)cc1
- AC50 (Cytochrome P450 2C19; read-out: AC50): 2 µM (inconclusive)
- AC50 (Cytochrome P450 2C9): 39.8 µM (inconclusive)

Structure (SMILES): CCCn1c(=O)c2c(ncn2C)n(CCC)c1=O
- AC50 (Cytochrome P450 3A4): 20 µM (inconclusive)

Structure (SMILES): COCc1nc2c([nH]1)c(=O)n(C)c(=O)n2CC(C)C
- AC50 (Cytochrome P450 3A4): 1.26 µM (inconclusive)

Structure (SMILES): COc1cccc(/N=c2\oc3c(C)ncc(CO)c3cc2C(N)=O)c1
- AC50 (Cytochrome P450 2C19): inconclusive
- AC50 (Cytochrome P450 2C9): 11.2 µM (inconclusive)

Structure (SMILES): C/C(=N/CCN1CCN(C(=S)Nc2ccccc2)CC1)C1=C(O)CC(C)(C)CC1=O
- AC50 (Cytochrome P450 2C9): 28.2 µM (inconclusive)

Structure (SMILES): COc1ccc(/C=N/NC(=O)CCCC(=O)NC2CCCCC2)cc1
- AC50 (Cytochrome P450 2C19; read-out: AC50): 14.1 µM (inconclusive)
- AC50 (Cytochrome P450 2C9): 10 µM (inconclusive)

Structure (SMILES): COc1ccc(C(=O)Nc2cc(OC)cc(OC)c2)cc1
- AC50 (Cytochrome P450 2C9): 22.4 µM (inconclusive)
